Experiment [1] concerns the target T1, isolated recombinant JAK2 kinase domain (Homo sapiens (Human), UniProt O60674). Kind of experiment: biochemical.
For experiment [2], the system named is JAK1-dependent STAT6 phosphorylation downstream of IL-13 stimulation in TF-1 human erythroleukemia cells. Kind of experiment: cells. Particulars: TF-1, read-out: IL-13-pSTAT6 IC50.
Experiment [3] deals with T1, isolated recombinant JAK2 kinase domain. Particulars: read-out: JAK2 Ki.
Experiment [4] deals with JAK1-dependent STAT6 phosphorylation downstream of IL-13 stimulation in BEAS-2B human bronchial epithelial cells. Kind of experiment: cells. Particulars: read-out: IL13-pSTAT6 BEASB2B IC50.
Method: Inhibitor potency (EC50) was determined in cell-based assays designed to measure JAK1 dependent STAT phosphorylation.
Prior to use in the assays, TF-1 cells were starved of GM-CSF overnight in OptiMEM medium (Life Technologies, Grand Island, N.Y.) supplemented with 0.5% charcoal/dextran stripped fetal bovine serum (FBS), 0.1 mM non-essential amino acids (NEAA), and 1 mM sodium pyruvate. The assays were run in 384-well plates in serum-free OptiMEM medium using 300,000 cells per well. In a second assay approach, BEAS-2B human bronchial epithelial cells obtained from ATCC were plated at 100,000 cells per well of a 96-well plate one day prior to the experiment. The BEAS-2B assay was run in complete growth medium (bronchial epithelial basal medium plus bulletkit; Lonza; Basel, Switzerland).
Test compounds were serially diluted 1:2 in DMSO and then diluted 1:50 in medium just before use. Diluted compounds were added to the cells, for a final DMSO concentration of 0.2%, and incubated for 30 min (for the TF-1 assay) or 1 hr (for the BEAS-2B assay) at 37° C. Then, cells were stimulated with human recombinant cytokine at their respective EC90 concentrations, as previously determined for each individual lot. […] The resultant samples were frozen in the plates at −80° C. Compound mediated inhibition of STAT6 phosphorylation was measured in the cell lysates using MesoScale Discovery (MSD) technology (Gaithersburg, Md.).
The mark [5] stands for this setting: isolated recombinant JAK2 kinase domain, 25 μM ATP.

Molecules are shown by their SMILES. Where a name gives a salt, the structure may show the parent alone. Read-outs that look alike come from different tables or passages of the source.

T1 sequence (O60674 849-1124): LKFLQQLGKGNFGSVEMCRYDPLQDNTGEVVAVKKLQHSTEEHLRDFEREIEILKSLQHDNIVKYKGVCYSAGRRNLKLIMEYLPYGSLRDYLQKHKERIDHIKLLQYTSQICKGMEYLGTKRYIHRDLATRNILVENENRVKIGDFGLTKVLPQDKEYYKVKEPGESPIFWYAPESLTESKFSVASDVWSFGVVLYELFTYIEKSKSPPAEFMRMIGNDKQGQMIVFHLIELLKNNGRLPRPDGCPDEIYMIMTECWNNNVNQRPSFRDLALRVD

Consider `CC(=O)NC1CCN(c2cccn3nc(Nc4ccc(C(=O)N(C)C5CCN(C)CC5)cc4)nc23)CC1` [Example 1-9, 4-[[8-(4-acetamido-1-piperidyl)-[1,2,4]triazolo[1,5-a]pyridin-2-yl]amino]-N-methyl-N-(1-methyl-4-piperidyl)benzamide; hydrochloride], for which the Ki in experiment [1] came to 63.2 nM.
Regarding `CC(=O)N1CCN(c2cccn3nc(Nc4ccc(C(=O)N(C)C5CCN(C)CC5)cc4)nc23)CC1` [Example 1-10, 4-[[8-(4-acetylpiperazin-1-yl)-[1,2,4]triazolo[1,5-a]pyridin-2-yl]amino]-N-methyl-N-(1-methyl-4-piperidyl)benzamide], in experiment [1], the Ki amounted to 74.7 nM. In addition, the half-maximal inhibitory concentration (IC50) in experiment [2] was over 10000 nM.
In the case of `CN1CCC(N(C)C(=O)c2ccc(Nc3nc4c(N5CCC(C#N)CC5)cccn4n3)cc2)CC1` [Example 1-11, 4-[[8-(4-cyano-1-piperidyl)-[1,2,4]triazolo[1,5-a]pyridin-2-yl]amino]-N-methyl-N-(1-methyl-4-piperidyl)benzamide], the Ki in experiment [1] is 6.28 nM. Besides, in experiment [2], the IC50 worked out at 235 nM.
As to `CN1CCC(N(C)C(=O)c2ccc(Nc3nc4c(N5CCCCC5)cccn4n3)cc2)CC1` [Example 1-12, N-methyl-N-(1-methyl-4-piperidyl)-4-[[8-(1-piperidyl)-[1,2,4]triazolo[1,5-a]pyridin-2-yl]amino]benzamide; dihydrochloride], the inhibition constant (Ki) in experiment [1] was 77.5 nM. The concentration for half-maximal inhibition (IC50) in experiment [2] was 3400 nM.
`CN1CCC(N(C)C(=O)c2ccc(Nc3nc4c(N5CCN(c6ccccc6)CC5)cccn4n3)cc2)CC1` [Example 1-13, N-methyl-N-(1-methyl-4-piperidyl)-4-[[8-(4-phenylpiperazin-1-yl)-[1,2,4]triazolo[1,5-a]pyridin-2-yl]amino]benzamide]: the Ki in experiment [1] worked out at 13.1 nM. In addition, the IC50 in experiment [2] came to 494 nM.
On to `CN1CCC(N(C)C(=O)c2ccc(Nc3nc4c(N5CCC(O)(c6cccnc6)CC5)cccn4n3)cc2)CC1` [Example 1-19, 4-[[8-[4-hydroxy-4-(3-pyridyl)-1-piperidyl]-[1,2,4]triazolo[1,5-a]pyridin-2-yl]amino]-N-methyl-N-(1-methyl-4-piperidyl)benzamide], for which the Ki in experiment [1] is 32 nM.
Still for that read-out and setting: the result for `CN1CCC(N(C)C(=O)c2ccc(Nc3nc4c(N5CCC(C(C)(C)O)CC5)cccn4n3)cc2)CC1` [Example 1-29, 4-[[8-[4-(1-hydroxy-1-methyl-ethyl)-1-piperidyl]-[1,2,4]triazolo[1,5-a]pyridin-2-yl]amino]-N-methyl-N-(1-methyl-4-piperidyl)benzamide] reads 47.4 nM.
Consider `CN1CCC(N(C)C(=O)c2ccc(Nc3nc4c(N5CCC(O)(c6ccc(F)cc6)CC5)cccn4n3)cc2)CC1` [Example 1-37, 4-[[8-[4-(4-fluorophenyl)-4-hydroxy-1-piperidyl]-[1,2,4]triazolo[1,5-a]pyridin-2-yl]amino]-N-methyl-N-(1-methyl-4-piperidyl)benzamide], for which the inhibitory constant (Ki) in experiment [1] worked out at 6.7 nM. Moreover, the IC50 in experiment [2] was 76.3 nM.
In the same order, the values of `CC(C)c1ccc(C2(O)CCN(c3cccn4nc(Nc5ccc(C(=O)N(C)C6CCN(C)CC6)cc5)nc34)CC2)cc1` [Example 1-38, 4-[[8-[4-hydroxy-4-(4-isopropylphenyl)-1-piperidyl]-[1,2,4]triazolo[1,5-a]pyridin-2-yl]amino]-N-methyl-N-(1-methyl-4-piperidyl)benzamide] are 5.59 nM and 152 nM.
Regarding `CN1CCC(N(C)C(=O)c2ccc(Nc3nc4c(N5CCC(CC#N)(c6ccccc6)CC5)cccn4n3)cc2)CC1` [Example 1-41, 4-[[8-[4-(cyanomethyl)-4-phenyl-1-piperidyl]-[1,2,4]triazolo[1,5-a]pyridin-2-yl]amino]-N-methyl-N-(1-methyl-4-piperidyl)benzamide], the Ki in experiment [3] (setting [5]) was determined as 0.2 nM. The 50% inhibitory concentration (IC50) in experiment [4] came to 42 nM; in experiment [2], 15.9 nM.
Take `O=C(c1ccc(Nc2nc3c(N4CCC(O)(c5ccc(Cl)cc5)CC4)cccn3n2)cc1)N1CCC(N2CCOCC2)CC1` [Example 1-125, [4-[[8-[4-(4-chlorophenyl)-4-hydroxy-1-piperidyl]-[1,2,4]triazolo[1,5-a]pyridin-2-yl]amino]phenyl]-(4-morpholino-1-piperidyl)methanone]: in experiment [3] (setting [5]), the inhibitory constant (Ki) was 0.63 nM. Further, the 50% inhibitory concentration (IC50) in experiment [4] was 42.8 nM; in experiment [2] it was 16.4 nM.
As for `NCCNC(=O)c1ccc(Nc2nc3c(N4CCC(O)(c5ccc(Cl)cc5)CC4)cccn3n2)cc1` [Example 1-175, N-(2-aminoethyl)-4-[[8-[4-(4-chlorophenyl)-4-hydroxy-1-piperidyl]-[1,2,4]triazolo[1,5-a]pyridin-2-yl]amino]benzamide], in experiment [1], the Ki is 0.92 nM. Also, the half-inhibitory concentration (IC50) in experiment [2] was 189 nM.
Consider `O=C(c1ccc(Nc2nc3c(N4CCC(O)(c5ccc(Cl)cc5)CC4)cccn3n2)cc1)N1CCNCC1` [Example 1-177, [4-[[8-[4-(4-chlorophenyl)-4-hydroxy-1-piperidyl]-[1,2,4]triazolo[1,5-a]pyridin-2-yl]amino]phenyl]-piperazin-1-yl-methanone], for which the Ki in experiment [1] was 1.51 nM. For the same molecule, the IC50 in experiment [2] came to 23.2 nM.
Turning to `CN1CCC(N(C)C(=O)c2ccc(Nc3nc4c(N5CCC(CCC#N)(c6ccc(Cl)cc6)CC5)cccn4n3)cc2)CC1` [Example 1-247, 4-{8-[4-(4-Chloro-phenyl)-4-(2-cyano-ethyl)-piperidin-1-yl]-1,8a-dihydro[1,2,4]triazolo[1,5-a]pyridine-2-ylamino}-N-methyl-N-(1-methyl-piperidin-4-yl)-benzamide], the Ki in experiment [3] (setting [5]) worked out at 0.33 nM. The half-inhibitory concentration (IC50) in experiment [4] stood at 115 nM; in experiment [2], 18.4 nM.
Regarding `CC(O)C1(c2ccc(Cl)cc2)CCN(c2cccn3nc(Nc4ccc(C(=O)N(C)C5CCN(C)CC5)cc4)nc23)CC1` (stereo not drawn) [Example 1-252, 4-[[8-[4-(4-chlorophenyl)-4-(1-hydroxyethyl)-1-piperidyl]-[1,2,4]triazolo[1,5-a]pyridin-2-yl]amino]-N-methyl-N-(1-methyl-4-piperidyl)benzamide], the inhibition constant Ki in experiment [3] (setting [5]) is 0.5 nM. Also, the 50% inhibitory concentration (IC50) in experiment [4] worked out at 90.2 nM.
For `CCOC(=O)CC1(c2ccc(Cl)cc2)CCN(c2cccn3nc(Nc4ccc(C(=O)N(C)C5CCN(C)CC5)cc4)nc23)CC1` [Example 1-254], the Ki in experiment [3] (setting [5]) was 0.39 nM. For the same molecule, the results for the IC50 in experiment [4] and in experiment [2] were 661 nM and 89.9 nM, respectively.
The corresponding values for `CN1CCC(N(C)C(=O)c2ccc(Nc3nc4c(N5CCC(CC(F)F)(c6ccc(Cl)cc6)CC5)cccn4n3)cc2)CC1` [Example 1-256, 4-([8-[4-(4-chlorophenyl)-4-(2,2-difluoroethyl)piperidin-1-yl]-[1,2,4]triazolo[1,5-a]pyridin-2-yl]amino)-N-methyl-N-(1-methylpiperidin-4-yl)benzamide] are 0.69 nM, 426 nM and 56.3 nM.
With `CN1CCC(N(C)C(=O)c2ccc(Nc3nc4c(N5CCC(CN)(c6ccc(Cl)cc6)CC5)cccn4n3)cc2)CC1` [Example 1-265, 4-([8-[4-(aminomethyl)-4-(4-chlorophenyl)piperidin-1-yl]-[1,2,4]triazolo[1,5-a]-pyridin-2-yl]amino)-N-methyl-N-(1-methylpiperidin-4-yl)benzamide], in experiment [3] (setting [5]), the Ki was 0.57 nM. Moreover, in experiment [4], the IC50 amounted to 94.8 nM.
For the molecule `CN1CCC(N(C)C(=O)c2ccc(Nc3nc4c(N5CCC(CO)(c6ccc(C(F)F)cc6)CC5)cccn4n3)cc2)CC1` [Example 1-267, 4-[(8-[4-[4-(difluoromethyl)phenyl]-4-(hydroxymethyl)piperidin-1-yl]-[1,2,4]triazolo[1,5-a]pyridin-2-yl)amino]-N-methyl-N-(1-methylpiperidin-4-yl)benzamide], in experiment [3], the Ki was found to be 0.25 nM. In addition, in experiment [4], the IC50 is 32.4 nM.
As to `CC(=O)NCC1(c2ccc(Cl)cc2)CCN(c2cccn3nc(Nc4ccc(C(=O)N(C)C5CCN(C)CC5)cc4)nc23)CC1` [Example 1-268, 4-([8-[4-(4-chlorophenyl)-4-(acetamidomethyl)piperidin-1-yl]-[1,2,4]triazolo[1,5-a]pyridin-2-yl]amino)-N-methyl-N-(1-methylpiperidin-4-yl)benzamide], the Ki in experiment [3] (setting [5]) is 0.38 nM. Moreover, in experiment [4], the 50% inhibitory concentration (IC50) was found to be 56.2 nM.
Regarding `CN1CCCC12CN(C(=O)c1ccc(Nc3nc4c(N5CCC(CO)(c6ccc(Cl)cc6)CC5)cccn4n3)cc1)C2` [Example 1-274, [4-[[8-[4-(4-chlorophenyl)-4-(hydroxymethyl)-1-piperidyl]-[1,2,4]triazolo[1,5-a]pyridin-2-yl]amino]phenyl]-(5-methyl-2,5-diazaspiro[3.4]octan-2-yl)methanone], in experiment [3] (setting [5]), the inhibition constant Ki was 0.17 nM. The 50% inhibitory concentration (IC50) in experiment [4] was found to be 28.9 nM; in experiment [2] it was 7.9 nM.
With `CNC1CN(C(=O)c2ccc(Nc3nc4c(N5CCC(CO)(c6ccc(Cl)cc6)CC5)cccn4n3)cc2)C1` [Example 1-283, [4-[[8-[4-(4-chlorophenyl)-4-(hydroxymethyl)-1-piperidyl]-[1,2,4]triazolo[1,5-a]pyridin-2-yl]amino]phenyl]-[3-(methylamino)azetidin-1-yl]methanone], in experiment [1], the Ki worked out at 0.15 nM. In addition, the IC50 is 31.3 nM in experiment [4] and 15.5 nM in experiment [2].
As to `COC(=O)CCN1CCN(C(=O)Cn2cc(Nc3nc4c(N5CCC(CO)(c6ccc(Cl)cc6)CC5)cccn4n3)cn2)CC1` [Example 1-290, Methyl 3-(4-[2-[4-([8-[4-(4-chlorophenyl)-4-(hydroxymethyl)piperidin-1-yl]-[1,2,4]triazolo[1,5-a]pyridin-2-yl]amino)-1H-pyrazol-1-yl]acetyl]piperazin-1-yl)propanoate], the inhibition constant (Ki) in experiment [3] (setting [5]) was determined as 0.3 nM. Moreover, the 50% inhibitory concentration (IC50) in experiment [4] was 5.9 nM.
For the molecule `CN1CCC(N(C)C(=O)c2ccc(Nc3nc4c(N5C[C@@H]6C[C@](O)(c7ccccc7)C[C@@H]6C5)cccn4n3)cc2)CC1` [Example 1-292], the Ki in experiment [1] came to 18.5 nM.

Values taken from patent US9873709B2 (priority 2013, dated 2018).
